This test concerns the target T1, malate dehydrogenase (Mdh3) (Cryptococcus neoformans, UniProt J9VXN5).
T1 construct: gene CNAG_03225; Mdh3-MBP fusion protein expressed in S. cerevisiae
T1 sequence (J9VXN5 1-338): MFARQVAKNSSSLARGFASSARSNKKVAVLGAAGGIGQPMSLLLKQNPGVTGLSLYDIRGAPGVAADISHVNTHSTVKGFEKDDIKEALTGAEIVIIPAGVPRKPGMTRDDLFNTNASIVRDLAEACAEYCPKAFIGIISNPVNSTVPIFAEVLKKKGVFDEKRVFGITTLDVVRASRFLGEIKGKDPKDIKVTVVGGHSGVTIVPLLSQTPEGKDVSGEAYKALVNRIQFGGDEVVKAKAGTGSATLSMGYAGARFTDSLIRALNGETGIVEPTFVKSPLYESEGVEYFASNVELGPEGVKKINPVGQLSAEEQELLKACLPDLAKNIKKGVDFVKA
Description: steady-state enzyme kinetics with recombinant Mdh3-MBP, NAD turnover at […] nm, with or without […] bithionol. It is filed as biochemical.

A word on the Ki: it is the dissociation constant of the complex between target and ligand, obtained from inhibition or displacement. In the case of `Oc1c(Cl)cc(Cl)cc1Sc1cc(Cl)cc(Cl)c1O` [bithionol], the Ki worked out at 3 µM.
